Experimental data reported in paper PMC8878047 (Pharmaceutics, 2022).

System: KM mice
Type: in vivo
Conditions: high-dose group, dead mice, HE staining
Experimental: After the acute toxicity test, the dead mice after oral administration and the surviving mice at the end of the observation period were promptly dissected and pathologically examined. […] We dissected the important organs (heart, liver, spleen, lung, kidney, large intestine, and small intestine) of dead mice and normal mice in the high-dose group of each drug solution. Then, the main organs were fixed in 10% buffered formalin and embedded in paraffin for 1–4 h. They were histopathologically examined under the optical microscope after slicing and staining with hematoxylin-eosin (HE) staining. No fixed parameters were compared between the treatment and control groups.

CCN1CCN(c2cc3c(cc2F)c(=O)c(C(=O)[O-])cn3C2CC2)CC1.[Na+] [EFX-Na, reference compound] was tested. Which “histopathological finding in kidney tissue” value did it give?
Its value is “more and larger glomeruli in kidney tissue”.
